Measured values reported in US20260262643A1, “HERBICIDAL BENZOXAZINES” (FMC CORPORATION, priority 2022, published 2026).

What was measured:
pigweed, palmer [1] = assay: Test C postemergence; format: in vivo, Amaranthus palmeri; settings: 10 days
How it was run: (§1)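 Greenhouse herbicide screen, 10-day duration. Test chemicals in solvent/surfactant blend were sprayed onto soil at sowing (pre) or onto 2–10 cm seedlings at one to two leaves (post); injury scored visually against controls, 0 no effect to 100 complete control.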

ducksalad = assay: Test D flooded paddy test; format: in vivo, Heteranthera limosa; settings: 250 g ai/ha, applied to paddy water, visual rating after 13 to 14 days, scale 0 to 100 (0 no effect, 100 complete control)
How it was run: (§2)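 Compounds go straight into paddy water over 2-leaf plants in pots flooded to 3 cm. Greenhouse holding lasts 13 to 14 days. Injury is scored by eye against controls from 0 (none) to 100 (complete control).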

wheat [2] = assay: Test C preemergence; format: in vivo, Triticum aestivum; settings: 0 to 100 scale (0 no effect, 100 complete control); for Plant response rating, Wheat: Preemergence, 500 g ai/ha, visual rating after 10 days; for Wheat plant response rating: Test C, preemergence, 125 g ai/ha
How it was run: as §1

green foxtail [3] = assay: Test C preemergence; format: in vivo, Setaria viridis; settings: 0 to 100 scale (0 no effect, 100 complete control); for Plant response rating, Foxtail, Green: Preemergence, 500 g ai/ha, visual rating after 10 days; for Foxtail, Green plant response rating: Test C, preemergence, 125 g ai/ha
How it was run: as §1

green foxtail [4] = assay: Test C postemergence; format: in vivo, Setaria viridis; settings: 10 days
How it was run: as §1

rice = assay: Test D flooded paddy test; format: in vivo, Oryza sativa; settings: 250 g ai/ha, applied to paddy water, visual rating after 13 to 14 days, scale 0 to 100 (0 no effect, 100 complete control)
How it was run: as §2

ragweed [5] = assay: Test C postemergence; format: in vivo, Ambrosia artemisiifolia; settings: 10 days
How it was run: as §1

oat, wild [6] = assay: Test C preemergence; format: in vivo, Avena fatua; settings: 0 to 100 scale (0 no effect, 100 complete control); for Plant response rating, Oat, Wild: Preemergence, 500 g ai/ha, visual rating after 10 days; for Oat, Wild plant response rating: Test C, preemergence, 125 g ai/ha
How it was run: as §1

oat, wild [7] = assay: Test C postemergence; format: in vivo, Avena fatua; settings: 10 days
How it was run: as §1

ryegrass, Italian [8] = assay: Test C preemergence; format: in vivo, Lolium multiflorum; settings: 0 to 100 scale (0 no effect, 100 complete control); for Plant response rating, Ryegrass, Italian: Preemergence, 500 g ai/ha, visual rating after 10 days; for Ryegrass, Italian plant response rating: Test C, preemergence, 125 g ai/ha
How it was run: as §1

wheat [9] = assay: Test C postemergence; format: in vivo, Triticum aestivum; settings: 10 days
How it was run: as §1

soybean [10] = assay: Test C postemergence; format: in vivo, Glycine max; settings: 10 days
How it was run: as §1

kochia [11] = assay: Test C postemergence; format: in vivo, Bassia scoparia; settings: 10 days
How it was run: as §1

ryegrass, Italian [12] = assay: Test C postemergence; format: in vivo, Lolium multiflorum; settings: 10 days
How it was run: as §1

kochia [13] = assay: Test C preemergence; format: in vivo, Bassia scoparia; settings: 0 to 100 scale (0 no effect, 100 complete control); for Plant response rating, Kochia: Preemergence, 500 g ai/ha, visual rating after 10 days; for Kochia plant response rating: Test C, preemergence, 125 g ai/ha
How it was run: as §1

horseweed = assay: Test C postemergence; format: in vivo, Erigeron canadensis; settings: 10 days
How it was run: as §1

barnyardgrass [14] = assay: Test D flooded paddy test; format: in vivo, Echinochloa crus-galli; settings: 250 g ai/ha, applied to paddy water, visual rating after 13 to 14 days, scale 0 to 100 (0 no effect, 100 complete control)
How it was run: as §2

barnyardgrass [15] = assay: Test C preemergence; format: in vivo, Echinochloa crusgalli; settings: 0 to 100 scale (0 no effect, 100 complete control); for Plant response rating, Barnyardgrass: Preemergence, 500 g ai/ha, visual rating after 10 days; for Barnyardgrass plant response rating: Test C, preemergence, 125 g ai/ha
How it was run: as §1

sedge, umbrella = assay: Test D flooded paddy test; format: in vivo, Cyperus difformis; settings: 250 g ai/ha, applied to paddy water, visual rating after 13 to 14 days, scale 0 to 100 (0 no effect, 100 complete control)
How it was run: as §2

pigweed, palmer [16] = assay: Test C preemergence; format: in vivo, Amaranthus palmeri; settings: 0 to 100 scale (0 no effect, 100 complete control); for Plant response rating, Pigweed, Palmer: Preemergence, 500 g ai/ha, visual rating after 10 days; for Pigweed, Palmer plant response rating: Test C, preemergence, 125 g ai/ha
How it was run: as §1

blackgrass [17] = assay: Test C preemergence; format: in vivo, Alopecurus myosuroides; settings: 0 to 100 scale (0 no effect, 100 complete control); for Plant response rating, Blackgrass: Preemergence, 500 g ai/ha, visual rating after 10 days; for Blackgrass plant response rating: Test C, preemergence, 125 g ai/ha
How it was run: as §1

blackgrass [18] = assay: Test C postemergence; format: in vivo, Alopecurus myosuroides; settings: 10 days
How it was run: as §1

ragweed [19] = assay: Test C preemergence; format: in vivo, Ambrosia artemisiifolia; settings: 0 to 100 scale (0 no effect, 100 complete control); for Plant response rating, Ragweed: Preemergence, 500 g ai/ha, visual rating after 10 days; for Ragweed plant response rating: Test C, preemergence, 125 g ai/ha
How it was run: as §1

corn [20] = assay: Test C preemergence; format: in vivo, Zea mays; settings: 0 to 100 scale (0 no effect, 100 complete control); for Plant response rating, Corn: Preemergence, 500 g ai/ha, visual rating after 10 days; for Corn plant response rating: Test C, preemergence, 125 g ai/ha
How it was run: as §1

corn [21] = assay: Test C postemergence; format: in vivo, Zea mays; settings: 10 days
How it was run: as §1

soybean [22] = assay: Test C preemergence; format: in vivo, Glycine max; settings: 0 to 100 scale (0 no effect, 100 complete control); for Plant response rating, Soybean: Preemergence, 500 g ai/ha, visual rating after 10 days; for Soybean plant response rating: Test C, preemergence, 125 g ai/ha
How it was run: as §1

barnyardgrass [23] = assay: Test C postemergence; format: in vivo, Echinochloa crusgalli; settings: 10 days
How it was run: as §1

[24] = 125 g ai/ha, postemergence, 0 to 100 scale, 0 no effect, 100 complete control
[25] = Postemergence, 500 g ai/ha, visual 0 to 100 scale (0 no effect, 100 complete control)

COc1cc(C(=O)N2C[C@H](C)Oc3c(Cl)cccc32)cc(-n2cnc(C(C)(C)C)n2)c1 [Compound 213]
Plant response rating, Pigweed, Palmer (pigweed, palmer [1]; [24]): 100 | Plant response rating, Pigweed, Palmer (pigweed, palmer [1]; [25]): 100 | Plant response rating, Ducksalad (Flood) (ducksalad): 90 | Plant response rating, Wheat (wheat [2]): 90 | Wheat plant response rating (wheat [2]): 10 | Plant response rating, Foxtail, Green (green foxtail [3]): 100 | Foxtail, Green plant response rating (green foxtail [3]): 100 | Plant response rating, Foxtail, Green (green foxtail [4]; [24]): 40 | Plant response rating, Foxtail, Green (green foxtail [4]; [25]): 70 | Plant response rating, Rice (Flood) (rice): 0 | Plant response rating, Ragweed (ragweed [5]; [24]): 30 | Plant response rating, Ragweed (ragweed [5]; [25]): 80 | Plant response rating, Oat, Wild (oat, wild [6]): 70 | Oat, Wild plant response rating (oat, wild [6]): 10 | Plant response rating, Oat, Wild (oat, wild [7]; [24]): 10 | Plant response rating, Oat, Wild (oat, wild [7]; [25]): 20 | Plant response rating, Ryegrass, Italian (ryegrass, Italian [8]): 90 | Ryegrass, Italian plant response rating (ryegrass, Italian [8]): 90 | Plant response rating, Wheat (wheat [9]; [24]): 20 | Plant response rating, Wheat (wheat [9]; [25]): 20 | Plant response rating, Soybean (soybean [10]; [24]): 100 | Plant response rating, Soybean (soybean [10]; [25]): 100 | Plant response rating, Kochia (kochia [11]; [24]): 90 | Plant response rating, Kochia (kochia [11]; [25]): 90 | Plant response rating, Ryegrass, Italian (ryegrass, Italian [12]; [24]): 30 | Plant response rating, Ryegrass, Italian (ryegrass, Italian [12]; [25]): 60 | Plant response rating, Kochia (kochia [13]): 100 | Kochia plant response rating (kochia [13]): 30 | Plant response rating, Horseweed (horseweed; [24]): 20 | Plant response rating, Horseweed (horseweed; [25]): 30 | Plant response rating, Barnyardgrass (Flood) (barnyardgrass [14]): 20 | Plant response rating, Barnyardgrass (barnyardgrass [15]): 100 | Barnyardgrass plant response rating (barnyardgrass [15]): 60 | Plant response rating, Sedge, Umbrella (Flood) (sedge, umbrella): 100 | Plant response rating, Pigweed, Palmer (pigweed, palmer [16]): 100 | Pigweed, Palmer plant response rating (pigweed, palmer [16]): 100 | Plant response rating, Blackgrass (blackgrass [17]): 80 | Blackgrass plant response rating (blackgrass [17]): 60 | Plant response rating, Blackgrass (blackgrass [18]; [24]): 0 | Plant response rating, Blackgrass (blackgrass [18]; [25]): 70 | Plant response rating, Ragweed (ragweed [19]): 30 | Ragweed plant response rating (ragweed [19]): 0 | Plant response rating, Corn (corn [20]): 10 | Corn plant response rating (corn [20]): 0 | Plant response rating, Corn (corn [21]; [24]): 10 | Plant response rating, Corn (corn [21]; [25]): 20 | Plant response rating, Soybean (soybean [22]): 100 | Soybean plant response rating (soybean [22]): 50 | Plant response rating, Barnyardgrass (barnyardgrass [23]; [24]): 20 | Plant response rating, Barnyardgrass (barnyardgrass [23]; [25]): 30

COc1cc(C(=O)N2C[C@H](C)Oc3c(Cl)cccc32)cc(-n2cnc(C3CCC3)n2)c1 [Compound 214]
Plant response rating, Pigweed, Palmer (pigweed, palmer [1]; [24]): 100 | Plant response rating, Pigweed, Palmer (pigweed, palmer [1]; [25]): 100 | Plant response rating, Ducksalad (Flood) (ducksalad): 70 | Plant response rating, Wheat (wheat [2]): 30 | Wheat plant response rating (wheat [2]): 10 | Plant response rating, Foxtail, Green (green foxtail [3]): 100 | Foxtail, Green plant response rating (green foxtail [3]): 100 | Plant response rating, Foxtail, Green (green foxtail [4]; [24]): 30 | Plant response rating, Foxtail, Green (green foxtail [4]; [25]): 80 | Plant response rating, Rice (Flood) (rice): 0 | Plant response rating, Ragweed (ragweed [5]; [24]): 40 | Plant response rating, Ragweed (ragweed [5]; [25]): 40 | Plant response rating, Oat, Wild (oat, wild [6]): 80 | Oat, Wild plant response rating (oat, wild [6]): 0 | Plant response rating, Oat, Wild (oat, wild [7]; [24]): 20 | Plant response rating, Oat, Wild (oat, wild [7]; [25]): 20 | Plant response rating, Ryegrass, Italian (ryegrass, Italian [8]): 90 | Ryegrass, Italian plant response rating (ryegrass, Italian [8]): 80 | Plant response rating, Wheat (wheat [9]; [24]): 20 | Plant response rating, Wheat (wheat [9]; [25]): 30 | Plant response rating, Soybean (soybean [10]; [24]): 100 | Plant response rating, Soybean (soybean [10]; [25]): 100 | Plant response rating, Kochia (kochia [11]; [24]): 70 | Plant response rating, Kochia (kochia [11]; [25]): 100 | Plant response rating, Ryegrass, Italian (ryegrass, Italian [12]; [24]): 20 | Plant response rating, Ryegrass, Italian (ryegrass, Italian [12]; [25]): 40 | Plant response rating, Kochia (kochia [13]): 100 | Kochia plant response rating (kochia [13]): 90 | Plant response rating, Horseweed (horseweed; [24]): 0 | Plant response rating, Horseweed (horseweed; [25]): 40 | Plant response rating, Barnyardgrass (Flood) (barnyardgrass [14]): 0 | Plant response rating, Barnyardgrass (barnyardgrass [15]): 100 | Barnyardgrass plant response rating (barnyardgrass [15]): 50 | Plant response rating, Sedge, Umbrella (Flood) (sedge, umbrella): 90 | Plant response rating, Pigweed, Palmer (pigweed, palmer [16]): 100 | Pigweed, Palmer plant response rating (pigweed, palmer [16]): 100 | Plant response rating, Blackgrass (blackgrass [17]): 70 | Blackgrass plant response rating (blackgrass [17]): 20 | Plant response rating, Blackgrass (blackgrass [18]; [24]): 0 | Plant response rating, Blackgrass (blackgrass [18]; [25]): 80 | Plant response rating, Ragweed (ragweed [19]): 0 | Ragweed plant response rating (ragweed [19]): 10 | Plant response rating, Corn (corn [20]): 20 | Corn plant response rating (corn [20]): 10 | Plant response rating, Corn (corn [21]; [24]): 60 | Plant response rating, Corn (corn [21]; [25]): 70 | Plant response rating, Soybean (soybean [22]): 80 | Soybean plant response rating (soybean [22]): 30 | Plant response rating, Barnyardgrass (barnyardgrass [23]; [24]): 20 | Plant response rating, Barnyardgrass (barnyardgrass [23]; [25]): 20
